# Laboratory results taken from patent US7384657B2, “Composition of natural herb extract for treating cardiovascular disease and its method of preparation thereof” (priority 2004, dated 2008).
# Entries after “also recorded” stand apart in the source; their conditions may differ.
# Legend:
# [1] = Tanshinone bile excretion and intrahepatic transformation; type: in vivo, rats
# Description: The experimental animal is male rats each weighs 350-400 g. Intraperitoneal anesthesia with 10% of 1 g/kg malarin is employed. Insert it into the common bile duct with infantile scalp needle. After it is fixed, collect bile, for 1 hour quantity, to be used as blank contrast. Small amount of dimethyl formamide added to the medicine. And then, 1% carboxymethyl cellulose is diluted to 10 mg/ml. Administer to the duodenum and followed by scheduled fixed quantity of bile collection. The bile stays overnight in the fridge. Abstract twice with chloroform and combine with chloroform liquid. Conduct water bath and dry it by evaporation. Keep it in the desiccators. Before the test, fixed quantity dilution is conducted by using 50 ml chloroform and followed by high pressure liquid's separation and fixation of quantity. The change of Tanshinone in the liver hemogenate: After a larger male […], weighs 160 g, is anesthetized, its liver is taken and weighed. Use 0.15M potassium chloride and 0.24M amide to manufacture hemogenate. Use double-deck gauze for filtrating. Again, with the above-mentioned solution, dilute the filtrate to every 10 ml which equals to the 6 g weight of the liver tissue. Add 4 ml of pH 7.4 phosphoric buffer solution and 2 ml liver hemogenate to the 100 ml conical flask. 1 mg specimen of Tanshinone dissolves in 95% of 0.2 ml ethanol. 0.2 ml of 95% ethanol liquid, which contains no tashinone, is added to the control group. Keep it warm at 37° C. for 2 hours. When the reaction ceases, use 12 ml chloroform to extract twice separately. Merge with the extract, and conduct water bath and dry it by evaporation. Before the test, the specimen is dissolved with 100 ml chloroform. Use the thin layer for separating and quantity fixing [silica-CMC thin layer; developer is benzene-acetone (95:5)]. […] The peak of excretion takes place in about 3 hours after the administration. […] Quantity of Tanshinone IIA in the bile excretion from animal of such group is 5 to 10 times higher than the Tanshinone IIA group. […]
# [2] = puerarin aglycone, left ventricular function index; type: in vivo; settings: dog
# Excerpt: Study proves puerarin is able to mitigate the angina pectoris, contracted, remarkably and improve the ischemic electrocardiogram. It reduces the myocardial oxygen consumption. Puerarin can slow down the rate of the heart pulsation and enhance the myocardial systolic power. […] Puerarin is able to outstandingly reduce the tension-time index (TTI) and the ascending rate of the left ventricular pressure. The effect of puerarin on ischemic myocardium is reducing the resistance of the coronary artery's lateral branch. Puerarin is able to mitigate clearly the PG angina pectoris and improve the ischemic electrocardiogram. […] It enables the reduction of coronary artery's resistance and the increase of coronary artery's flow volume. Thus, it is advantageous to the improvement of balance of supply and need. And also, it has the obvious effect on resisting the arrhythmia.
# solubility = assay: solubility
# Description: Matrine is also called matricaria. Its molecular formula is C15H24N2O and its molecular weight is 248.36. It has four isomers: α, β, γ, and δ isomers. α-matrine is the one commonly seen. It is a needle or rhombohedral crystal, having a melting point 76° C. and [α]D+39.1° (H2O).
# Oxymatrine has a molecular formula C15H24N2O2 and a molecular weight 264.36. It is a colorless columnar crystal (Me2CO), melting point 162° C. (hydrate), 207° C. (anhydrate), [α]D+47.7° (C2H5OH). […] It can change to matrine through reaction with SO2.
# [3] = tested on: isolated guinea pig's right and left atrium; assay: isolated guinea pig's atria
# Excerpt: The effect of alkaloids on heart function is studied. […] Furthermore, it presents dosage dependent relation. The function of its negative frequency, positive inotropic action and negative maximum driving force (MDF) appears to be linear correlation. Matrine is able to inhibit the aconitine to induce the rats's left atrial automatic rhythmicity effect, or, prolong the aconitine to induce the latent period's auto-rhythmicity or slow down its initial frequency. Also, it is able to heighten the ouabin to induce the guinea pig's right atrial arrhythmia and the adrenal gland injection to induce the auto-consistency of guinea pig's left atrium. Moreover, it has the enhancement effect on the positive inotropic action of ouabin.
# In fact, all of them are dosage dependence relation. […] It clearly prolongs inducement of the latent period of auto-rhythmicity and slows down the inducement of auto-rhythmicity's initial frequency. It is also able to raise ouabin to induce the isolated guinea pig's right atrial arrhythmia and the adrenal gland inducing the isolated guinea pig's left atrial auto-rhythmicity's consistency.
# [4] = intravenous matrine injection in cat; type: in vivo; settings: 1 mg/kg i.v.
# Excerpt: The curative effect of matrine upon the premature heartbeat, caused by various reasons, is relatively better. It is partially effective on the supraventricular arrhythmia. In clinical study, matrine's tablet is employed to treat 167 cases of arrhythmia.
# [5] = intravenous matrine in rats: arrhythmia and ECG; type: in vivo
# Excerpt: (§1) It is antagonistic to the acceleration of heart rate induced by isopropylnoradrenaline.
# [6] = tested on: isolated rats's right atrium; assay: isolated rats's right atrium
# Excerpt: as §1
# [7] = intramuscular matrine crystal in dog
# Description: Intramuscular injection of matrine crystal 200 mg/kg given to the dog. […] Dog is administrated with daily intramuscular injection 0.5 g. […] 1-3 treatment courses are carried out altogether.
# [8] = subcutaneous injection; cited from earlier work
# [9] = pharmacokinetics of oxymatrine and matrine in mice; settings: mouse, in vivo
molecule,measurement,setting,value
C[C@H]1COC2=C1C(=O)C(=O)c1c2ccc2c1CCCC2(C)C [latent Tanshinone],transformation in the liver,"[1]; rat, in vivo",can transform into Tanshinone IIA
O=c1c(-c2ccc(O)cc2)coc2cc(O)ccc12 [puerarin aglycone],lowering of left ventricular function index,[2],14.3%
Matrine,solubility,solubility,"soluble in water, benzene, chloroform, ether and carbon sulfide and nearly insoluble in petroleum ether"
same,left atrial maximum driving force (MDF),[3],reduces the left atrial maximum driving force
same,right atrial systolic power,[3],increases the right atrial systolic power
same,aconitine-induced left atria automatic rhythmicity,[3]; 3 μmol/L,significantly inhibits
same,automatic frequency of right atrium,[3]; dosage dependent,slow down the automatic frequency of guinea pig's right atrium; also recorded: obvious negative frequency effect
same,blood flow capacity of the coronary artery,[4],increases
same,heart rate,[4],slowdown of cat's heart rate emerges
same,heart rate,[5]; 18.75 mg/kg,heart rate slows down clearly
same,"arrhythmia caused by aconitine, barium chloride and ligation of coronary artery",[5]; i.v.,significantly able to resist the arrhythmia
same,calcium-antagonism effect,[6],no calcium-antagonism effect
same,right atrial spontaneous frequency,[6],clearly slows down
same,abnormal phenomenon,"[7]; 200 mg/kg intramuscular, 6 hours of observation",no abnormal phenomenon except slightly being quiet
same,"mental state, activity condition and hemogram","[7]; 0.5 g daily intramuscular, 14 days",no apparent abnormal phenomenon
same,pathologic examination of the myocardium,"[7]; 0.5 g daily, 13-day courses, 1-3 courses",no obvious change
same,LD50,[8],297 ± 18 mg/kg
same,gastrointestinal absorption,[9],easier to be absorbed by the gastrointestinal tract
Tanshinone,time of peak of bile excretion,[1]; duodenal administration,about 3 hours
same,time until Tanshinone is found in the bile,[1]; duodenal administration,in about an hour
